Source: patent US7829575B2, “Methods for treating androgen receptor related disorders” (University of Cincinnati, priority 2006, dated 2010)

Tests used:
AR N/C interaction = target: T1, AR N/C interaction (Homo sapiens, UniProt P10275); experiment: AR N/C interaction, mammalian two-hybrid luciferase in HeLa cells; assay type: cell-based; conditions: 24 hr
T1 construct: the AR LBD and GAL4 DBD fusion protein (GAL4-LBD); expressed in transfected cells; host or cells: HeLa
T1 sequence (P10275 669-900 limits assumed): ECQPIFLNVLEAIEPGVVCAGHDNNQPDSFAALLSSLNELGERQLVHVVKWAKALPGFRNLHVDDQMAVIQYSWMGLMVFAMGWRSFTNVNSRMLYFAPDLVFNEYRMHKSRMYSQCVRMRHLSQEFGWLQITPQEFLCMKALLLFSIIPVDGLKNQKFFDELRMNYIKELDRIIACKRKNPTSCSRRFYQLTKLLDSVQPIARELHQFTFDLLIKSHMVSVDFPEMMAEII

22Rv1 cells = experiment: Cellular PSA and AR protein, western blotting; assay type: cell-based; conditions: 24 hr

DHT-induced N/C interaction (AR N/C interaction; 1 nM DHT, different concentrations): not significantly altered
luciferase activity (N/C interaction), compound alone (AR N/C interaction; no DHT): not significantly altered
Compound: CC(C)(C)c1ccc(OCCSc2nc(=O)cc(N)[nH]2)cc1 [DL3, 6-amino-2-(2-4-tert-butyl-phenoxy)-ethylsulfanyl-1H-pyrimidin-4-one]
expression of AR protein (22Rv1 cells; 5 and 10 μM): not significantly altered
expression of AR protein (22Rv1 cells; 20 and 40 μM): reduced
PSA protein expression (22Rv1 cells; CMEM, increasing concentrations): inhibitory effects
